Laboratory results from patent US20130116241A1, “NOVEL INHIBITOR COMPOUNDS OF PHOSPHODIESTERASE TYPE 10A” (AbbVie Inc., priority 2011, published 2013).
pIC50: −log10 of the molar value. Structures can show the parent of a compound that is named as a salt.

Each molecule was assayed against human PDE10A (UniProt Q9Y233) (assay: Measurement of PDE activity (recombinant enzyme, HTRF cAMP kit)). Conditions: Table 1, substrate 20 nM for PDE10, 60 minutes at 29 C, read-out: IC50.
Sequence of human PDE10A (Q9Y233 290-1055 limits assumed): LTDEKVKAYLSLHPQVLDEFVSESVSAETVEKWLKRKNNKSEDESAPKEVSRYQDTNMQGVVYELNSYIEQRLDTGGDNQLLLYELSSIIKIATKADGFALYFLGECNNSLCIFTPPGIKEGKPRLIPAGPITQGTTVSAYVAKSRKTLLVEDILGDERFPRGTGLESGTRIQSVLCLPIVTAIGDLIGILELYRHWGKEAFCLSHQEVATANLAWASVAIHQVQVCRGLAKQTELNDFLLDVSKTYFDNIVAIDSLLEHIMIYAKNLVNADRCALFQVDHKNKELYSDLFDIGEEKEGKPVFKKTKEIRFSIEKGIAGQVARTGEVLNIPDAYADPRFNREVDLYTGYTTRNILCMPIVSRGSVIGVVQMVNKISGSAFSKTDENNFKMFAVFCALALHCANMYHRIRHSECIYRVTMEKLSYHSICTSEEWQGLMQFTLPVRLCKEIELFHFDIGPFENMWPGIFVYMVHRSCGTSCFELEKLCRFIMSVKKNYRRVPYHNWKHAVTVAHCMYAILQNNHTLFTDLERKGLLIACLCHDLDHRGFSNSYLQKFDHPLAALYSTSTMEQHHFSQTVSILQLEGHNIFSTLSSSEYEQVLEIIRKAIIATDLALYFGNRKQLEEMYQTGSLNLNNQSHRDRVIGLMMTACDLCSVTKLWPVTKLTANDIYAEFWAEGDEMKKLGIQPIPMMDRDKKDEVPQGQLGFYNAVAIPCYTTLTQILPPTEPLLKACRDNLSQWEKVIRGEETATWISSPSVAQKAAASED
Type: biochemical
Outline: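 HTRF detection of cAMP left after hydrolysis, expressed as percent of uninhibited control to derive IC50. Reaction: serially diluted inhibitor mixed with recombinant enzyme, started with 20 nM cAMP, 60 min at 29 °C in Tris-HCl pH 7.5 buffer containing MgCl2 and BSA.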
In the case of `O=c1c2c(N3CCC[C@H](O)C3)cccc2ccn1C1CC1c1ccc2ccccc2n1` (stereo partly drawn) [Example 244, anti 8-((3S)-3-hydroxypiperidin-1-yl)-2-(2-(quinolin-2-yl)cyclopropyl)isoquinolin-1(2H)-one (2E)-but-2-enedioate], the pIC50 was > 7.00.
`COc1ccc2nc(/C=C/n3ccc4scc(-c5ccncc5)c4c3=O)ccc2c1` [compound 410] was tested, and the pIC50 was > 7.00.
`Cn1nccc1-c1cccc2cnn(CCc3ccc4ccccc4n3)c(=O)c12` [Example 161, 8-(1-Methyl-1H-pyrazol-5-yl)-2-[2-(quinolin-2-yl)ethyl]phthalazin-1(2H)-one hydrochloride] was tested, and the pIC50 was > 7.00.
`Cc1ccc(-c2csc3cnn(CCc4ccc5ccccc5n4)c(=O)c23)cc1` [Example 7, 3-(4-methylphenyl)-5-[2-(quinolin-2-yl)ethyl]thieno[2,3-d]pyridazin-4(5H)-one] showed a pIC50 of 6.30 to 6.70.
With `O=c1c2c(OCC3COC(CO)CO3)cccc2cnn1CCc1cn2ccccc2n1` (stereo not drawn) [compound 378, 8-{[5-(hydroxymethyl)-1,4-dioxan-2-yl]methoxy}-2-[2-(imidazo[1,2-a]pyridin-2-yl)ethyl]phthalazin-1(2H)-one] the pIC50 was 6.30 to 6.70.
`O=c1c2cccc(-c3ccncc3)c2cnn1CCc1ccc2ccccc2n1` [Example 192, 5-(Pyridin-4-yl)-2-[2-(quinolin-2-yl)ethyl]phthalazin-1(2H)-one hydrochloride] was tested, and the pIC50 was > 7.00.
`O=c1c2c(N[C@@H]3CCOC3)cccc2cnn1CCc1cn2ccccc2n1` [compound 377, 2-[2-(imidazo[1,2-a]pyridin-2-yl)ethyl]-8-[(3R)-tetrahydrofuran-3-ylamino]phthalazin-1(2H)-one] was tested, and the pIC50 was > 7.00.
For `O=c1c2cccc(N3CCOCC3)c2cnn1CCc1ccc2ccccc2n1` [compound 397, hydrochloride], the pIC50 was > 7.00.
For `O=c1c2c(-c3ccncc3)cncc2cnn1CCc1ccc2ccccc2n1` [Example 301, 8-(pyridin-4-yl)-2-[2-(quinolin-2-yl)ethyl]pyrido[3,4-d]pyridazin-1(2H)-one], the pIC50 was > 7.00.
`O=c1c2c(-c3ccncc3)csc2ccn1C1CC1c1ccc2cc(F)ccc2n1` (stereo not drawn) [compound 281] was tested, and the pIC50 was > 7.00.
For `O=c1c2c(-c3ccco3)cccc2cnn1CCc1cn2ccccc2n1` [compound 358, hydrochloride], the pIC50 was 6.70 to 7.00.
Molecule `O=c1c2c(N3CCCC4(CC3)CNCCO4)cccc2cnn1CCc1cn2ccccc2n1` (stereo not drawn) [compound 330, dihydrochloride] has a pIC50 of 6.30 to 6.70.
With `O=c1c2c(N3CCC4(COC4)C3)cccc2cnn1CCc1cn2ccccc2n1` [compound 339, 2-[2-(imidazo[1,2-a]pyridin-2-yl)ethyl]-8-(2-oxa-6-azaspiro[3.4]oct-6-yl)phthalazin-1(2H)-one] the pIC50 was > 7.00.
For `Cc1ccccc1-c1cccc2cnn(CCc3ccc4ccccc4n3)c(=O)c12` [Example 109, 8-(2-Methylphenyl)-2-[2-(quinolin-2-yl)ethyl]phthalazin-1(2H)-one], the pIC50 was 6.30 to 6.70.
In the case of `O=c1c2c(-c3ccncc3)cccc2ccn1C1CC1c1ccc2cc(F)ccc2n1` (stereo not drawn) [Example 274], the pIC50 was > 7.00.
For `COc1cccc(-c2csc3cnn(CCc4ccc5ccccc5n4)c(=O)c23)c1F` [Example 79, 3-(2-fluoro-3-methoxyphenyl)-5-[2-(quinolin-2-yl)ethyl]thieno[2,3-d]pyridazin-4(5H)-one], the pIC50 was 6.30 to 6.70.
`Cn1ccc(-c2cccc3cnn(CCc4cn5ccccc5n4)c(=O)c23)n1` [Example 169, 2-[2-(Imidazo[1,2-a]pyridin-2-yl)ethyl]-8-(1-methyl-1H-pyrazol-3-yl)phthalazin-1(2H)-one] showed a pIC50 of 6.30 to 6.70.
With `COc1ncc(-c2csc3cnn(CCc4ccc5ccccc5n4)c(=O)c23)cn1` [Example 59, 3-(2-methoxypyrimidin-5-yl)-5-[2-(quinolin-2-yl)ethyl]thieno[2,3-d]pyridazin-4(5H)-one] the pIC50 was > 7.00.
For `O=c1c2c(N3CCOCC3)cccc2cnn1CCc1ccc2ccccc2n1` [compound 329, hydrochloride], the pIC50 was > 7.00.
Work on `O=c1c2c(N3CCC(C(F)F)C3)cccc2ccn1C1CC1c1ccc2ccccc2n1` (stereo not drawn) [Example 262, anti 8-(3-(difluoromethyl)pyrrolidin-1-yl)-2-(2-(quinolin-2-yl)cyclopropyl)isoquinolin-1(2H)-one, trifluoroacetate] yielded a pIC50 of 6.70 to 7.00.
With `O=c1c2c(-c3ccncc3)cccc2ccn1CCc1ccc2ccccc2n1` [Example 223, 8-(Pyridin-4-yl)-2-(2-quinolin-2-yl-ethyl)isoquinolin-1(2H)-one] the pIC50 was > 7.00.
For `O=c1c2c(N3CCOCC3)ccnc2cnn1CCc1ccc2ccccc2n1` [compound 405, 4-(morpholin-4-yl)-6-[2-(quinolin-2-yl)ethyl]pyrido[2,3-d]pyridazin-5(6H)-one], the pIC50 was > 7.00.
For `O=c1c2c(-c3cncnc3)cccc2ccn1C1CC1c1ccc2ccccc2n1` (single isomer, unassigned) [Example 240a, anti (+) 8-(pyrimidin-5-yl)-2-(2-(quinolin-2-yl)cyclopropyl)isoquinolin-1(2H)-one], the pIC50 was > 7.00.
In the case of `O=c1c2c(-c3ccncc3)csc2c(-c2ccncc2)nn1CCc1ccccn1` [Example 5, 3,7-Di(pyridin-4-yl)-5-[2-(pyridin-2-yl)ethyl]thieno[2,3-d]pyridazin-4(5H)-one], the pIC50 was > 7.00.
For `Cc1cc(-c2cccc3cnn(CCc4ccc5ccccc5n4)c(=O)c23)ccn1` [Example 135, 8-(2-Methylpyridin-4-yl)-2-[2-(quinolin-2-yl)ethyl]phthalazin-1(2H)-one], the pIC50 was > 7.00.
For `O=c1c2c(-c3ccncc3)csc2ccn1C1CC1c1ccc2ccccc2n1` (single isomer, unassigned) [293b], the pIC50 was > 7.00.
`O=c1c2cccc(-c3ccncc3)c2cnn1CCc1cn2ccccc2n1` [compound 401, 2-[2-(imidazo[1,2-a]pyridin-2-yl)ethyl]-5-(pyridin-4-yl)phthalazin-1(2H)-one] was tested, and the pIC50 was > 7.00.
`O=c1c2c(NCC3COC3)cccc2cnn1CCc1cn2ccccc2n1` [compound 383, 2-[2-(imidazo[1,2-a]pyridin-2-yl)ethyl]-8-[(oxetan-3-ylmethyl)amino]phthalazin-1(2H)-one] was tested, and the pIC50 was > 7.00.
With `Cc1cc2ccccc2nc1CCn1ccc2cccc(-c3ccncc3)c2c1=O` [compound 327, 2-[2-(3-methylquinolin-2-yl)ethyl]-8-(pyridin-4-yl)isoquinolin-1(2H)-one] the pIC50 was > 7.00.
With `O=c1c2c(-c3cccnc3)csc2ccn1C1CC1c1ccc2sccc2n1` (stereo not drawn) [compound 288] the pIC50 was > 7.00.
`O=c1c2c(-c3cncnc3)cccc2ccn1[C@@H]1C[C@H]1c1ccc2ccccc2n1` (racemic) [Example 240, anti 8-(pyrimidin-5-yl)-2-(2-(quinolin-2-yl)cyclopropyl)isoquinolin-1(2H)-one] was tested, and the pIC50 was > 7.00.
`O=c1c2c(-c3cccc(F)c3)cccc2cnn1CCc1ccc2ccccc2n1` [Example 115, 8-(3-Fluorophenyl)-2-[2-(quinolin-2-yl)ethyl]phthalazin-1(2H)-one] was tested, and the pIC50 was > 7.00.
For `O=c1c2c(-c3ccncc3)csc2ccn1/C=C/c1nc2ccccc2s1` [compound 415, 5-[(E)-2-(1,3-benzothiazol-2-yl)ethenyl]-3-(pyridin-4-yl)thieno[3,2-c]pyridin-4(5H)-one], the pIC50 was > 7.00.
Work on `O=c1c2c(-c3ccccc3)csc2cnn1CCc1ccc2ccccc2n1` [Example 85, 3-phenyl-5-[2-(quinolin-2-yl)ethyl]thieno[2,3-d]pyridazin-4(5H)-one] yielded a pIC50 of 6.70 to 7.00.
For `O=c1c2c(-c3ccc(F)c(F)c3)csc2cnn1CCc1ccc2ccccc2n1` [Example 72, 3-(3,4-difluorophenyl)-5-[2-(quinolin-2-yl)ethyl]thieno[2,3-d]pyridazin-4(5H)-one], the pIC50 was 6.70 to 7.00.
Work on `COc1cncc(-c2csc3cnn(CCc4ccc5ccccc5n4)c(=O)c23)c1` [Example 52, 3-(5-methoxypyridin-3-yl)-5-[2-(quinolin-2-yl)ethyl]thieno[2,3-d]pyridazin-4(5H)-one] yielded a pIC50 of 6.70 to 7.00.
In the case of `O=c1c2c(-c3ccc(F)c(F)c3)cccc2cnn1CCc1ccc2ccccc2n1` [Example 149, 8-(3,4-difluorophenyl)-2-[2-(quinolin-2-yl)ethyl]phthalazin-1(2H)-one], the pIC50 was 6.30 to 6.70.
In the case of `N#Cc1ccc(-c2cccc3cnn(CCc4ccc5ccccc5n4)c(=O)c23)cc1` [Example 103, 4-{4-Oxo-3-[2-(quinolin-2-yl)ethyl]-3,4-dihydrophthalazin-5-yl}benzonitrile], the pIC50 was > 7.00.
Work on `O=c1c2c(-c3cccs3)csc2cnn1CCc1ccc2ccccc2n1` [Example 34, 5-[2-(quinolin-2-yl)ethyl]-3-(thiophen-2-yl)thieno[2,3-d]pyridazin-4(5H)-one] yielded a pIC50 of 6.70 to 7.00.
Molecule `CN(CC1(C)COC1)c1cccc2cnn(CCc3cn4ccccc4n3)c(=O)c12` [compound 394, 2-[2-(imidazo[1,2-a]pyridin-2-yl)ethyl]-8-{methyl[(3-methyloxetan-3-yl)methyl]amino}phthalazin-1(2H)-one] has a pIC50 of 6.30 to 6.70.
Work on `O=c1c2c(-c3ccc(F)cc3Cl)cccc2cnn1CCc1ccc2ccccc2n1` [Example 143, 8-(2-Chloro-4-fluorophenyl)-2-[2-(quinolin-2-yl)ethyl]phthalazin-1(2H)-one] yielded a pIC50 of 6.30 to 6.70.
In the case of `O=c1c2c(N3CCS(=O)(=O)CC3)cccc2cnn1CCc1cn2ccccc2n1` [Example 175, 8-(1,1-Dioxidothiomorpholin-4-yl)-2-[2-(imidazo[1,2-a]pyridin-2-yl)ethyl]phthalazin-1(2H)-one], the pIC50 was 6.70 to 7.00.
With `O=c1c2c(-c3ccc(O)cc3)cccc2cnn1CCc1ccc2ccccc2n1` [Example 107, 8-(4-Hydroxyphenyl)-2-[2-(quinolin-2-yl)ethyl]phthalazin-1(2H)-one] the pIC50 was > 7.00.
For `O=c1c2c(-c3ccncc3)csc2cnn1CCc1ccc2sccc2n1` [Example 95, 3-(Pyridin-4-yl)-5-[2-(thieno[3,2-b]pyridin-5-yl)ethyl]thieno[2,3-d]pyridazin-4(5H)-one], the pIC50 was > 7.00.
In the case of `O=c1c2c(-c3ccoc3)csc2cnn1CCc1ccc2ccccc2n1` [Example 41, 3-(furan-3-yl)-5-[2-(quinolin-2-yl)ethyl]thieno[2,3-d]pyridazin-4(5H)-one], the pIC50 was > 7.00.
